Molecules are shown by their SMILES.

For this assay, the system named is NBD1. The assay can be described thus: Aggregation analysis of NBD1 thermal stability by differential static light scattering (DSLS). The note with it: compound at 100 μM; ΔTagg versus DMSO control. In kind it is binding, Human. As for the experimental part: Purified recombinant NBD1 was produced using previously described methods (A. Schmidt, J. L. Mendoza, P. J. Thomas (2011) Biochemical and Biophysical Approaches to Probe CFTR Structure (365-376) M. D. Amaral, K. Kunzelmann (eds.), Cysic Fibrosis, Methods in Molecular Biology 741, Springer Science+Business Media). The effect of test compounds on thermal stability of NBD1 was evaluated by differential static light scattering (DSLS) using the Harbinger Stargazer-384 instrument (Epiphyte Three, Toronto, Canada). Test compounds were dissolved and diluted to desired concentrations in 100% DMSO. The compounds or DMSO controls (100 nL) were stamped into wells of a […] low volume optical plate (Corning Inc., Corning, NY) using the Echo 555 acoustic liquid handler (Labcyte Inc., San Jose, CA).
NBD1 protein was diluted to 0.2 mg/ml in S200 buffer (50 mM Tris-HCl, 150 mM NaCl, 5 mM MgCl2, 2 mM ATP, 2 mM DTT, pH7.6) containing 1% glycerol. 10 uL of protein solution was aliquoted into the 384-well plate harboring the test compounds and 10 uL mineral oil was overlayed onto the protein solution, using the epMotion robotic liquid handler (Eppendorf North America, Hauppauge, NY). After placing into the Stargazer instrument, the plate was heated at 1° C. per minute to 70° C. Images were captured from 25° C. to 70° C. every 0.5° C. At the end of the experiment run, instrument software integrated image files and analyzed data automatically. A […] regression curve was generated for each well, representing the increase in light scattering over time. A temperature of aggregation (Tagg) was calculated based on the inflection point of the curve. To better compare data across experiments the average Tagg for DMSO control wells was calculated and subtracted from values for wells containing compounds to obtain a “ΔTagg” value. These ΔTagg values reflect stabilizing efficacy of the compounds.
Consider `OC(c1cccc(-c2nnc(Cc3ccccc3)[nH]2)c1)c1ccc2[nH]ccc2c1` (single isomer, unassigned) [Example 35B, (3-(5-Benzyl-4H-1,2,4-triazol-3-yl)phenyl)(1H-indol-5-yl)methanol], for which the “DSLS NBD1/3D Human Stability delta-T (° C.) @ 100 (μM)” value (shortened to “DSLS NBD1/3D Human Stability delta-T”) is recorded as “C (≤4° C.)”.

With `O=C(O)c1c(Oc2cccc(-c3nc(C(O)(c4ccccc4)C(F)(F)F)n[nH]3)c2)ccc2[nH]ccc12` (stereo not drawn) [Example 67, 5-(3-(3-(2,2,2-Trifluoro-1-hydroxy-1-phenylethyl)-1H-1,2,4-triazol-5-yl)phenoxy)-1H-indole-4-carboxylic acid], the “DSLS NBD1/3D Human Stability delta-T” value was “C (≤4° C.)”.

As for `NC(c1ccccc1)c1nnc(-c2cccc(Oc3ccc4[nH]ccc4n3)c2)[nH]1` (stereo not drawn) [Example 17, (5-(3-((1H-Pyrrolo[3,2-b]pyridin-5-yl)oxy)phenyl)-4H-1,2,4-triazol-3-yl)(phenyl)methanamine], the “DSLS NBD1/3D Human Stability delta-T” value was “B (4-8° C.)”.

With `COCC[S+]([O-])c1c(Oc2cccc(-c3ncc(C(C)(O)c4ccccc4)[nH]3)c2)c(F)cc2[nH]ccc12` (stereo not drawn) [Example 62, 1-(2-(3-((6-Fluoro-4-((2-methoxyethyl)sulfinyl)-1H-indol-5-yl)oxy)phenyl)-1H-imidazol-5-yl)-1-phenylethan-1-ol], the “DSLS NBD1/3D Human Stability delta-T” value is given as “B (4-8° C.)”.

Regarding `CC(O)(c1ccccc1)c1cnc(-c2cccc(Oc3ccc4[nH]ccc4c3S(C)(=O)=O)c2)[nH]1` (single isomer, unassigned) [Example 63B, 1-(2-(3-((4-(methylsulfonyl)-1H-indol-5-yl)oxy)phenyl)-1H-imidazol-5-yl)-1-phenylethan-1-ol], the “DSLS NBD1/3D Human Stability delta-T” value is recorded as “B (4-8° C.)”.

On to `NCc1nc(-c2cc(Oc3c(F)cc4[nH]ccc4c3F)ccc2F)[nH]c1Cc1ccccc1` [Example 80, (5-Benzyl-2-(5-((4,6-difluoro-1H-indol-5-yl)oxy)-2-fluorophenyl)-1H-imidazol-4-yl)methanamine], for which the “DSLS NBD1/3D Human Stability delta-T” value is reported as “B (4-8° C.)”.

As for `CC(O)(c1ccccc1)c1cnc(-c2cccc(Oc3cc(F)c4[nH]ccc4c3)c2)[nH]1` (stereo not drawn) [Example 69, 1-(2-(3-((7-Fluoro-1H-indol-5-yl)oxy)phenyl)-1H-imidazol-5-yl)-1-phenylethan-1-ol], the “DSLS NBD1/3D Human Stability delta-T” value is recorded as “B (4-8° C.)”.

In the case of `CC(O)(c1ccccc1)c1c[nH]c(-c2cc(Oc3c(F)cc4[nH]ccc4c3CC(F)F)ccc2F)n1` (stereo not drawn) [Example 25, 1-(2-(5-((4-(2,2-Difluoroethyl)-6-fluoro-1H-indol-5-yl)oxy)-2-fluorophenyl)-1H-imidazol-4-yl)-1-phenylethan-1-ol], the “DSLS NBD1/3D Human Stability delta-T” value is reported as “B (4-8° C.)”.

For the molecule `O=C(c1cccc(-c2nnc(Cc3ccccc3)[nH]2)c1)c1ccc2[nH]ccc2c1` [Example 34, (3-(5-Benzyl-4H-1,2,4-triazol-3-yl)phenyl)(1H-indol-5-yl)methanone], the “DSLS NBD1/3D Human Stability delta-T” value is recorded as “C (≤4° C.)”.

For `O=C(O)CCc1c(Oc2cccc(-c3nnc(Cc4ccccc4)[nH]3)c2)ccc2[nH]ccc12` [Example 58, 3-(5-(3-(5-Benzyl-4H-1,2,4-triazol-3-yl)phenoxy)-1H-indol-4-yl)propanoic acid], the “DSLS NBD1/3D Human Stability delta-T” value is “A (T ≥8° C.)”.

For the molecule `COCCNC(=O)c1c(Oc2cccc(-c3nc(C(O)c4ccccc4)c[nH]3)c2)ccc2[nH]ccc12` (stereo not drawn) [Example 82, 5-(3-(4-(Hydroxy(phenyl)methyl)-1H-imidazol-2-yl)phenoxy)-N-(2-methoxyethyl)-1H-indole-4-carboxamide], the “DSLS NBD1/3D Human Stability delta-T” value is “B (4-8° C.)”.

Turning to `c1ccc(Cc2nnc(-c3cccc(Oc4ccc5[nH]cc6c5c4CNCC6)c3)[nH]2)cc1` [Example 46, 9-(3-(5-Benzyl-4H-1,2,4-triazol-3-yl)phenoxy)-2,3,4,6-tetrahydro-1H-azepino[5,4,3-cd]indole], the “DSLS NBD1/3D Human Stability delta-T” value was “C (≤4° C.)”.

Take `CC(O)(c1ccccc1)c1cnc(-c2cccc(Oc3ccc4[nH]ccc4n3)c2)[nH]1` (stereo not drawn) [Example 53, 1-(2-(3-((1H-Pyrrolo[3,2-b]pyridin-5-yl)oxy)phenyl)-1H-imidazol-5-yl)-1-phenylethan-1-ol]: the “DSLS NBD1/3D Human Stability delta-T” value is “B (4-8° C.)”.

Take `CC(C)(c1ccccc1)c1cnc(-c2cc(Oc3c(F)cc4[nH]ccc4c3CCS(N)(=O)=O)ccc2F)[nH]1` [Example 75, 2-(6-Fluoro-5-(4-fluoro-3-(5-(2-phenylpropan-2-yl)-1H-imidazol-2-yl)phenoxy)-1H-indol-4-yl)ethane-1-sulfonamide]: the “DSLS NBD1/3D Human Stability delta-T” value was “B (4-8° C.)”.

Regarding `CNC(=O)CNC(=O)c1c(Oc2cccc(-c3ncc(C(O)c4ccccc4)[nH]3)c2)ccc2[nH]ncc12` (stereo not drawn) [Example 28, 5-(3-(5-(Hydroxy(phenyl)methyl)-1H-imidazol-2-yl)phenoxy)-N-(2-(methylamino)-2-oxoethyl)-1H-indazole-4-carboxamide], the “DSLS NBD1/3D Human Stability delta-T” value is given as “B (4-8° C.)”.

With `CN(C)CCNC(c1ccccc1)c1nnc(-c2cccc(Oc3ccc4[nH]ccc4n3)c2)[nH]1` (stereo not drawn) [Example 24, N1-((5-(3-((1H-Pyrrolo[3,2-b]pyridin-5-yl)oxy)phenyl)-4H-1,2,4-triazol-3-yl)(phenyl)methyl)-N2,N2-dimethylethane-1,2-diamine], the “DSLS NBD1/3D Human Stability delta-T” value is reported as “B (4-8° C.)”.

Consider `CS(=O)(=O)c1c(Oc2cccc(-c3ncc(C(N)c4ccccc4)[nH]3)c2)c(F)cc2[nH]ccc12` (stereo not drawn) [Example 15, (2-(3-((6-Fluoro-4-(methylsulfonyl)-1H-indol-5-yl)oxy)phenyl)-1H-imidazol-5-yl)(phenyl)methanamine], for which the “DSLS NBD1/3D Human Stability delta-T” value is on record as “A (T ≥8° C.)”.

Turning to `Cn1nc(-c2cccc(Oc3ccc4[nH]ccc4c3C(N)=O)c2)nc1Cc1ccccc1` [Example 57, 5-(3-(5-Benzyl-1-methyl-1H-1,2,4-triazol-3-yl)phenoxy)-1H-indole-4-carboxamide], the “DSLS NBD1/3D Human Stability delta-T” value is listed as “B (4-8° C.)”.

As to `CNCCS(=O)(=O)c1c(Oc2cccc(-c3ncc(C(C)(O)c4ccccc4)[nH]3)c2)c(F)cc2[nH]ccc12` (stereo not drawn) [Example 64, 1-(2-(3-((6-Fluoro-4-((2-(methylamino)ethyl)sulfonyl)-1H-indol-5-yl)oxy)phenyl)-1H-imidazol-5-yl)-1-phenylethan-1-ol], the “DSLS NBD1/3D Human Stability delta-T” value is “A (T ≥8° C.)”.

Turning to `c1ccc(Cc2nnc(-c3cncc(Oc4ccc5[nH]ccc5c4)c3)[nH]2)cc1` [Example 29, 5-((5-(5-Benzyl-4H-1,2,4-triazol-3-yl)pyridin-3-yl)oxy)-1H-indole], the “DSLS NBD1/3D Human Stability delta-T” value was “C (≤4° C.)”.

Consider `CS(=O)(=O)NC(=O)Cc1c(Oc2cccc(-c3nnc(Cc4ccccc4)[nH]3)c2)ccc2[nH]ccc12` [Example 56, 2-(5-(3-(5-Benzyl-4H-1,2,4-triazol-3-yl)phenoxy)-1H-indol-4-yl)-N-(methylsulfonyl)acetamide], for which the “DSLS NBD1/3D Human Stability delta-T” value was “A (T ≥8° C.)”.

On to `O=C(O)Cc1c[nH]c2ccc(Oc3cccc(-c4nnc(Cc5ccccc5)[nH]4)c3)cc12` [Example 30, 2-(5-(3-(5-Benzyl-4H-1,2,4-triazol-3-yl)phenoxy)-1H-indol-3-yl)acetic acid], for which the “DSLS NBD1/3D Human Stability delta-T” value is “C (≤4° C.)”.

As for `O=C(NCC(O)C(F)(F)F)c1c(Oc2cccc(-c3nc(C(O)c4ccccc4)c[nH]3)c2)ccc2[nH]ccc12` (stereo not drawn) [Example 83, 5-(3-(4-(Hydroxy(phenyl)methyl)-1H-imidazol-2-yl)phenoxy)-N-(3,3,3-trifluoro-2 hydroxypropyl)-1H-indole-4-carboxamide], the “DSLS NBD1/3D Human Stability delta-T” value is reported as “A (T ≥8° C.)”.

As for `CC(O)(c1ccccc1)c1cnc(-c2cccc([S+]([O-])c3ccc4[nH]ccc4c3)c2)[nH]1` (stereo not drawn) [Example 40, 1-(2-(3-((1H-Indol-5-yl)sulfinyl)phenyl)-1H-imidazol-5-yl)-1-phenylethan-1-ol], the “DSLS NBD1/3D Human Stability delta-T” value was “C (≤4° C.)”.

Consider `CNS(=O)(=O)c1c(Oc2ccc(F)c(-c3ncc(C(C)(O)c4ccccc4)[nH]3)c2)c(F)cc2[nH]ccc12` (stereo not drawn) [Example 22, 6-Fluoro-5-(4-fluoro-3-(5-(1-hydroxy-1-phenylethyl)-1H-imidazol-2-yl)phenoxy)-N-methyl-1H-indole-4-sulfonamide], for which the “DSLS NBD1/3D Human Stability delta-T” value is given as “B (4-8° C.)”.

Regarding `O=C1NCc2c[nH]c3ccc(Oc4cccc(-c5nnc(Cc6ccccc6)[nH]5)c4)c1c23` [Example 42, 6-(3-(5-Benzyl-4H-1,2,4-triazol-3-yl)phenoxy)-3,4-dihydropyrrolo[4,3,2-de]isoquinolin-5(1H)-one], the “DSLS NBD1/3D Human Stability delta-T” value was “C (≤4° C.)”.

As for `CC(O)(c1ccccc1)c1c[nH]c(-c2cc(Oc3c(F)cc4[nH]ccc4c3S(C)(=N)=O)ccc2F)n1` (stereo not drawn) [Example 6, (6-fluoro-5-(4-fluoro-3-(4-(1-hydroxy-1-phenylethyl)-1H-imidazol-2-y1)phenoxy)-1H-indol-4-y1)(imino)(methyl)-16-sulfanone], the “DSLS NBD1/3D Human Stability delta-T” value is “A (T ≥8° C.)”.

The values are drawn from patent US20240239784A1, “INDOLE COMPOUNDS AND METHODS OF USE” (GENZYME CORPORATION, priority 2021, published 2024).
